Data on two compounds can be found in patent US20170232031A1, “Inhibitors of Zika Virus” (Riboscience LLC, priority 2016, published 2017).

What is called EC50 is the concentration needed to bring the measured effect to its halfway point. For orientation: CC50 means the concentration that lowers cell viability or growth by half.

“Also recorded” adds a separate entry of the source. Where two headings read alike, the source gives them in different places.

For data set [1] the following is noted: human, in vivo; cited from earlier work.
For data set [2], the system named is HCV replicon of genotype 1b (Con1). Put plainly: HCV replicon genotype 1b antiviral activity. The class given is cell-based. The following applies: Hepatitis C virus; replicon genotype 1b (Con1); read-out: HCV GT1b EC50.
Another data set can be described thus: in vitro. It counts as cell-based. The following applies: human; Huh-7 cell derived CHIKV replicon cells. An excerpt: (§1) FIG. 3. Antiviral activity of I-3 against ZIKV and CHIKV replication and cell viability determined in Huh-7 cell derived CHIKV replicon cells by intracellular ATP quantification (CellTiter-Glo).
(§2) Antiviral activity of I-3 (prodrug of 4AU) against ZIKV and CHIKV replication and cell viability determined in Huh-7 cell derived CHIKV replicon cells by intracellular ATP quantification (CellTiter-Glo).

Data set [3] is classed as in vitro ADME, human. As for the experimental part:
The formation of 4AUTP triphosphate is determined in human cells (Huh-7 cells, PBMC), and representative mouse, rat, dog and cynomolgus monkey cells. The intracellular triphosphate concentration is determined using LC-MS/MS. In human cells, the time and concentration dependent formation of 4AUTP triphosphate is determined, as well as the half-life after removal of all extracellular prodrug by exchange of cell culture medium. Analysis of intracellular nucleoside phosphates is conducted using well-established methods.

The conditions of data set [4]: 13 week, GLP; cited from earlier work.
A further data set relates to HCV replication. The settings on record: humans; cited from earlier work.
Data set [5] has as its system Chikungunya replicon (CHIKV strain LR2006 OPY-1, GenBank EU224270). Put plainly: Chikungunya replicon antiviral activity. The following applies: Chikungunya virus. It counts as cell-based.
Description: as §1, §2

The nature of data set [6]: Cytotoxicity (CC50) alongside HCV GT1b replicon assay. The following applies: HCV GT1b (Con1) replicon cells. On the technique in general: A replicon is a self-replicating genome or part of one, used to study replication in cells.
Another data set has as its system HepG2 cells. Put plainly: Mitochondrial toxicity in HepG2 cells (COX-I / SDH-A ratio). The following applies: up to 11-day incubation. An excerpt:
Mean values shown as individual data points; standard deviations as error bars (FIG. 4).

The conditions of data set [7]: 13 week, GLP; cited from earlier work. The source holds these as a separate data set.
Data set [8] is described as follows: Cell viability (CC50) alongside ZIKV antiviral assay, Cell-titer Glo. It counts as cell-based. The settings on record: human, Huh-7 cells. As for the experimental part:
(§3) The human hepatoma cell line Huh-7, are cultured in DMEM without phenol-red (Cellgro Mediatech, Cat #10-013-CV containing 4.5 g/l glucose, L-glutamine & sodium pyruvate). The medium is further supplemented with 10% (v/v) FBS (ATLAS Cat # F-0500-A, lot#850114A) and 1% (vlv) penicillin/streptomycin (Cellgro Mediatech #30-022-CI). Cells are maintained at 37° C. in a humidified 5% CO2 atmosphere. Zika virus representative strain titers are measured on BHK-21 cells, using a standard plaque assay procedure. For the determination of EC50 of nucleoside in the antiviral assay, Huh-7 cells are plated in white 96-well plates in MEM media supplemented with 10% FBS and 1% penicillin/streptomycin. After incubation for 24 h, the cells are infected at a multiplicity of infection (MOI) of 0.5 for 2 h at 37° C. Ten three-fold dilutions of compounds are prepared in the same media supplemented with 1% DMSO. After the 2 h adsorption phase, the virus is aspirated off and diluted compound is added to four wells each. Huh-7 cells are plated as described above and exposed to the same concentration range of compounds. Untreated cells are carried along as a control. After a 3-day incubation at 37° C., the cell viability is determined using Cell-titer Glo™ reagent (Promega, Madison, Wis.) that is added to each well and incubated for 5 min. Plates are analyzed using a Thermo Luminoskan plate reader (Waltham, Mass.).

The target in another data set is T1, human RNA polymerase II (Homo sapiens, UniProt P24928+P30876).
T1 construct: endogenous in cells; host or cells: HeLa
Put plainly: RNA polymerase II specific reporter gene assay in HeLa cells. The class given is cell-based. The settings on record: 10 or 100 μM (highest soluble concentrations).

In a further data set the target is T2, human RNA polymerase I (Homo sapiens, UniProt O95602+Q9H9Y6).
T2 construct: endogenous in cells; host or cells: HeLa
Description: RNA polymerase I specific reporter gene assay in HeLa cells. It counts as cell-based. The following applies: 10 or 100 μM (highest soluble concentrations).

In a further data set the target is T3, human RNA polymerase III (Homo sapiens, UniProt O14802+Q9NW08).
T3 construct: endogenous in cells; host or cells: HeLa
Description: RNA polymerase III specific reporter gene assay in HeLa cells. It counts as cell-based. The settings on record: 10 or 100 μM (highest soluble concentrations). Background: A reporter such as luciferase makes a cellular process visible.

The test system of data set [9] is ZIKV strain MR766 (Genbank LC002520). Put plainly: Antiviral activity against ZIKV replication in cells. The class given is cell-based, Zika virus. As for the experimental part:
as §3

For `[N-]=[N+]=N[C@]1(CO)O[C@@H](n2ccc(=O)[nH]c2=O)[C@H](O)[C@@H]1O` [Compound 4AU, 4′-azidouridine], in data set [1], the “safety in Phase 1 clinical study” value is listed as “safety of 4AU has already been demonstrated”. Moreover, the EC50 was 217 µM in [2] and more than 100 µM in data set [5]. The CC50 (in the data set “in vitro”; in data set [6]) was more than 1000 µM in each case. Also, the “conversion to 4AU-triphosphate (4AUTP)” value in [3] is listed as “not efficiently converted”. Besides, in data set [4], the “safety in chronic toxicity study, rats” value is “safety of 4AU has already been demonstrated”. Further, the “antiviral activity against HCV replication in Phase 1 study” value with HCV replication is recorded as “significant antiviral activity”. Moreover, the mitochondrial toxicity result in the data set with HepG2 cells was “No mitochondrial toxicity; also recorded: lack of mitochondrial toxicity”. Besides, in [7], the “safety in chronic toxicity study, monkeys” value is on record as “safety of 4AU has already been demonstrated”.

Take `CCOC(=O)[C@H](C)NP(=O)(OC[C@@]1(N=[N+]=[N-])O[C@@H](n2ccc(=O)[nH]c2=O)[C@H](O)[C@@H]1O)Oc1cccc2ccccc12` (stereo partly drawn) [Compound I-3, ethyl ((((2R,3S,4R,5R)-2-azido-5-(2,4-dioxo-3,4-dihydropyrimidin-1(2H)-yl)-3,4-dihydroxytetrahydrofuran-2-yl)methoxy)(naphthalen-1-yloxy)phosphoryl)-L-alaninate]: the CC50 at 3 day in data set [8] (cytotoxicity column of the ZIKV assay, read-out: ZIKV CC50) is more than 100 µM; in data set [8] (summary statement, cytotoxicity in cell culture, read-out: Huh-7 cell CC50), more than 100 µM. For the same compound, the EC50 in data set [2] came to 0.4 µM; in data set [5], 4.1 µM; in data set [9] (Zika virus, ZIKV strain MR766, human Huh-7 or mouse MEF cells), 0.48 µM. The 50% cytotoxic concentration (CC50) (in the data set “in vitro”; in [6]) was more than 100 µM in each case. The “inhibition of human RNA polymerase II activity (reporter gene)” value at human RNA polymerase II is on record as “did not inhibit”. Further, the “inhibition of human RNA polymerase I activity (reporter gene)” value on human RNA polymerase I is recorded as “did not inhibit”. Also, at human RNA polymerase III, the “inhibition of human RNA polymerase III activity (reporter gene)” value is “did not inhibit”. In addition, in data set [9] (summary statement), the “antiviral inhibition potency (EC50), in words” value is listed as “submicromolar”.
